Measured values taken from patent US20170298073A1, “SALTS, CO-CRYSTALS, AMORPHOUS FORMS, AND CRYSTALLINE FORMS OF A CO-ACTIVATOR-ASSOCIATED ARGININE METHYLTRANSFERASE 1 (CARM1) INHIBITOR” (Epizyme, Inc, priority 2014, published 2017).
Converted amounts (≈) assume the structure as drawn.

Test: Thermodynamic solubility at room temperature
Assay type: physicochemical
Details: 25 °C, thermodynamic from solid
Description: In an exemplary experiment, the thermodynamic solubilities of the solid forms described herein were determined at room temperature (RT, 25±3° C.).

## CNC[C@@H](O)COc1ccc(Cl)c(-c2nc(-c3c(C)noc3C)c(C)c(N3CC4(CCN(C(=O)OC)CC4)C3)n2)c1 [Form A]
Organic solvent or mixture, solvent 1,4-Dioxane
  solubility: > 40 mg/mL
Organic solvent or mixture, solvent 2-Methyl-tetrahydrofuran
  solubility: > 50 mg/mL
Organic solvent or mixture, solvent Acetic acid
  solubility: > 44 mg/mL
Organic solvent or mixture, solvent Acetone
  solubility: > 48 mg/mL
Organic solvent or mixture, solvent Acetonitrile
  solubility: > 42 mg/mL
Organic solvent or mixture, solvent CHCl3
  solubility: > 38 mg/mL
Organic solvent or mixture, solvent Dichloromethane
  solubility: > 36 mg/mL
Organic solvent or mixture, solvent Dimethyl sulfoxide
  solubility: > 38 mg/mL
Organic solvent or mixture, solvent Dimethylacetamide
  solubility: > 42 mg/mL
Organic solvent or mixture, solvent EtOAc
  solubility: > 50 mg/mL
Organic solvent or mixture, solvent EtOH
  solubility: > 40 mg/mL
Organic solvent or mixture, solvent Isopropanol
  solubility: > 36 mg/mL
Organic solvent or mixture, solvent Isopropyl acetate
  solubility: > 36 mg/mL
Organic solvent or mixture, solvent MeOH
  solubility: > 38 mg/mL
Organic solvent or mixture, solvent Methyl isobutyl ketone
  solubility: > 34 mg/mL
Organic solvent or mixture, solvent Methyl-tert-butyl ether
  solubility: < 1.1 mg/mL
Organic solvent or mixture, solvent N-methyl-2-pyrrolidone
  solubility: > 44 mg/mL
Organic solvent or mixture, solvent THF
  solubility: > 36 mg/mL
Organic solvent or mixture, solvent Toluene
  solubility: > 38 mg/mL
Organic solvent or mixture, solvent n-Heptane
  solubility: < 1.1 mg/mL
Organic solvent or mixture, solvent n-Heptane/THF (1:1 by volume)
  solubility: 14 to 21 mg/mL (≈ 23.9 to 35.9 mM)
Organic solvent or mixture, solvent n-Heptane/THF (1:2 by volume)
  solubility: > 42 mg/mL
Organic solvent or mixture, solvent n-Heptane/THF (1:3 by volume)
  solubility: > 40 mg/mL
Organic solvent or mixture, solvent n-Heptane/THF (2:1 by volume)
  solubility: 2.6 to 3 mg/mL (≈ 4.44 to 5.13 mM)
Organic solvent or mixture, solvent n-Heptane/THF (4:1 by volume)
  solubility: < 1.6 mg/mL
water, solvent H2O
  solubility: < 1.1 mg/mL
